Results taken from patent publication US20140271716A1, “Intra-testicular Injection of Immunogens” (priority 2013, published 2014).

Columns and labels:
[1] = Zinc level in blood after intramuscular injection of zinc acetate; conditions: pigs, intramuscular 30 mg/kg
[2] = Zinc level in blood after intra-testicular injection of zinc acetate; conditions: pigs; for Zinc Concentration in blood: intra-testicular 0.5 ml (74 mg/ml) each testis

SMILES: CC(=O)[O-].CC(=O)[O-].[Zn+2] [zinc acetate]
- Zinc Concentration in blood ([1]; 0 Min (physiological level)): 45.3 μ mol/L
- Zinc Concentration in blood ([1]; 30 min): 194.08 μ mol/L
- Zinc Concentration in blood ([1]; 1 hr.): 76.17 μ mol/L
- Zinc Concentration in blood ([1]; 2 hr.): 67.4 μ mol/L
- Zinc Concentration in blood ([1]; 3 hr.): 65.22 μ mol/L
- Zinc Concentration in blood ([1]; 4 hr.): 62.8 μ mol/L
- Zinc Concentration in blood ([1]; 6 hr.): 61.6 μ mol/L
- Zinc Concentration in blood ([1]; 8 hr.): 60.8 μ mol/L
- Zinc Concentration in blood ([1]; 12 hr.): 54.3 μ mol/L
- Zinc Concentration in blood ([1]; 16 hr.): 48.7 μ mol/L
- Zinc Concentration in blood ([1]; 24 hr.): 47.3 μ mol/L
- Zinc Concentration in blood ([1]; 36 hr.): 44.5 μ mol/L
- Zinc Concentration in blood ([1]; 48 hr.): 44.2 μ mol/L
- mean residence time ([2]; intra-testicular): ~60 h
- time of second absorption phase after injection ([2]; intra-testicular): 24 h
- Zinc Concentration in blood ([2]; 0 Min (taken as zero)): 0 μ mol/L
- Zinc Concentration in blood ([2]; 30 Min): 8.44 μ mol/L
- Zinc Concentration in blood ([2]; 1 hr.): 7.49 μ mol/L
- Zinc Concentration in blood ([2]; 2 hr.): 5.65 μ mol/L
- Zinc Concentration in blood ([2]; 3 hr.): 5.27 μ mol/L
- Zinc Concentration in blood ([2]; 4 hr.): 4.96 μ mol/L
- Zinc Concentration in blood ([2]; 6 hr.): 4.06 μ mol/L
- Zinc Concentration in blood ([2]; 8 hr.): 4.43 μ mol/L
- Zinc Concentration in blood ([2]; 12 hr.): 3.87 μ mol/L
- Zinc Concentration in blood ([2]; 24 hr.): 4.43 μ mol/L
- Zinc Concentration in blood ([2]; 48 hr.): 3.11 μ mol/L
- Zinc Concentration in blood ([2]; 72 hr.): −0.36 μ mol/L
- Zinc Concentration in blood ([2]; 96 hr.): −0.29 μ mol/L
